Read-outs that look alike come from different tables or passages of the source.
Tests used:
A-549 = assay: MTT cell viability assay, A-549; type: cell-based, human; conditions: read-out: IC50 (µM) in Cultured Cells A-549
Excerpt: (§1) Cell lines used for cytotoxicity assays included MCF-7 (human breast adenocarcinoma), A549 (human lung adenocarcinoma), K562 (human chronic myelogenous leukemia) and HEK-293 (human embryonic kidney) cells and were obtained from the Iranian Biological Resource Center, Tehran, Iran. MES-SA-DX5 multidrug resistant human uterine sarcoma, over-expressing P-gp and their parental non-resistant MES-SA cell lines were purchased from Sigma-Aldrich (St. Louis, MO, USA). All cells, except for HEK-293, were cultured in RPMI 1640 supplemented with 10% FBS and 100 units/mL penicillin-streptomycin at 37 °C in humidified air containing 5% CO2. HEK-293 cells were maintained in DMEM-F12 medium containing L-glutamine 2 mM supplemented with FBS and penicillin-streptomycin. MES-SA-DX5 cells were maintained in media containing 100 nM doxorubicin in order to ensure that only drug-resistant cells continue to grow.
(§2) Cytotoxicity of the test compounds were evaluated by MTT assay. In this method, reduction of MTT, a yellow tetrazolium salt to the purple formazan, by cellular dehydrogenase enzymes is determined as an index of cell viability. Cancer cells were seeded into 96-well plates (3–5 × 10^3 cells/well) and incubated for 24 h at 37 °C. Afterwards, four different concentrations of synthesized derivatives were added in triplicate and the cells were incubated at 37 °C for another 72 h, after which the media was replaced with MTT solution at a concentration of 0.5 mg/mL was added for MTT assay. After another 4h, formazan crystals were dissolved in 200 μL DMSO for 90 min and absorbance was measured at a wavelength of 570 nm with background correction at 650 nm using a microplate reader (model 680, Bio-Rad, Hercules, CA, USA) and IC50 for each compound was calculated with CurveExpert version 1.34 for Windows.

MES-SA-DX5 = assay: MTT cell viability assay, MES-SA-DX5; type: cell-based, human; conditions: multidrug resistant, P-gp overexpressing, read-out: IC50 (µM) in Cultured Cells MES-SA-DX5
Excerpt: as §1, §2

MCF-7 = assay: MTT cell viability assay, MCF-7; type: cell-based, human; conditions: read-out: IC50 (µM) in Cultured Cells MCF-7
Excerpt: as §1, §2

K562 = assay: MTT cell viability assay, K562; type: cell-based, human; conditions: read-out: IC50 (µM) in Cultured Cells K562
Excerpt: as §1, §2

HEK-293 = assay: MTT cell viability assay, HEK-293; type: cell-based, human; conditions: non-cancerous, read-out: IC50 (µM) in Cultured Cells HEK-293
Excerpt: as §1, §2

MES-SA-DX5 cells = assay: Cell cycle analysis by propidium iodide (PI)-RNase flow cytometry; type: cell-based, human; design: Sub G1: unit not given here; conditions: 24 h
Procedure: The analysis of cells in different phases of cell cycle and sub-G1 was performed using propidium iodide (PI)-RNase assay by flow cytometry. MES-SA-DX5 cells were seeded in 12-well plates (1 × 10^6 cells/well) and treated with different concentrations of synthesized compounds for 24 h. The cells were then collected, washed with PBS, and fixed with 70% ethanol overnight at –20 °C. After at least 24 h, fixed cells were washed with PBS and subsequently stained with a DNA staining solution containing PI 20 μg/mL and RNase 200 μg/mL at room temperature for 30 min in the dark. Twenty thousand cells of each sample were analyzed using a BD FACSCalibur flow cytometer (BD Biosciences, USA) and the amount of the cells in sub-G1, G0/G1, S, and G2/M phases were estimated using CellQuest (Becton Dickinson, San Jose, CA, USA) software.
Therefore, it could be concluded that these compounds cause cytotoxicity in drug resistant MES-SA-DX5 cells by induction of apoptosis in these cells.
Figure 3 Effect of synthesized derivatives on cell cycle alterations in MES-SA-DX5 drug resistant cells. The cells in different phases of cell cycle were monitored using propidium iodide (PI)-RNase assay by flow cytometry. MES-SA-DX5 cells were seeded in 12-well plates (1 × 10^6 cells/well) and treated with different concentrations of synthesized compounds for 24 h. The cells were then collected, washed with PBS and fixed with 70% ethanol overnight at –20 °C. After at least 24 h, fixed cells were washed with PBS and subsequently stained with a DNA staining solution containing PI 20 μg/mL and RNase 200 μg/mL at room temperature for 30 min in the dark. Twenty thousand cells of each sample were analyzed using a FACS Calibur flow cytometer (BD Biosciences, USA). Representative histograms of cells treated with synthesized compounds are shown. An increase in sub-G1 phase cells could be observed after treatment with A1, A2, B1, and B2 compounds.

MES-SA = assay: MTT cell viability assay, MES-SA; type: cell-based, human; conditions: for IC50: MTT, 72 h, parental non-resistant, read-out: IC50 (µM) in Cultured Cells MES-SA
Excerpt: as §1, §2

COc1cc(-c2c(C(=O)Nc3csc(C)n3)c(C)nc3c2C(=O)CCC3)cc(OC)c1OC [Compound B4, 2-Methyl-N-(2-methylthiazol-4-yl)-5-oxo-4-(3,4,5-trimethoxyphenyl)-5,6,7,8-tetrahydroquinoline-3-carboxamide]
IC50 (A-549; Homo sapiens, A549, 72 h): > 100 µM | melting point: 238 °C | IC50 (MES-SA-DX5; Homo sapiens, MES-SA/Dx5, 72 h): > 100 µM | IC50 (MCF-7; Homo sapiens, MCF7, 72 h): > 100 µM | IC50 (K562; Homo sapiens, K562, 72 h): > 100 µM

COc1cc(C2C(C(=O)Nc3csc(C)n3)=C(C)NC3=C2C(=O)CCC3)cc(OC)c1OC (stereo not drawn) [Compound A4, 2-Methyl-N-(2-methylthiazol-4-yl)-5-oxo-4-(3,4,5-trimethoxyphenyl)-1,4,5,6,7,8-hexahydroquinoline-3-carboxamide]
IC50 (A-549; Homo sapiens, A549, 72 h): > 100 µM | melting point: 160 °C | IC50 (MES-SA-DX5; Homo sapiens, MES-SA/Dx5, 72 h): > 100 µM | IC50 (MCF-7; Homo sapiens, MCF7, 72 h): > 100 µM | IC50 (K562; Homo sapiens, K562, 72 h): > 100 µM

COc1cccc2c1C(=O)c1c(O)c3c(c(O)c1C2=O)C[C@@](O)(C(=O)CO)C[C@@H]3O[C@H]1C[C@H](N)[C@H](O)[C@H](C)O1 [Doxorubicin, reference compound]
IC50 (A-549; Homo sapiens, A549, 72 h): 0.575 ± 0.127 µM | IC50 (HEK-293; Homo sapiens, HEK293, 72 h): 0.009 ± 0.002 µM | G0/G1 (MES-SA-DX5 cells; 2.5 µM): 34.23 ± 3.3 | G2/M (MES-SA-DX5 cells; 2.5 µM): 52.10 ± 4.4 | S (MES-SA-DX5 cells; 2.5 µM): 12.57 ± 1.4 | Sub G1 (MES-SA-DX5 cells; 2.5 µM): 1.08 ± 0.2 | G0/G1 (MES-SA-DX5 cells; 5 µM): 21.50 ± 2.5 | G2/M (MES-SA-DX5 cells; 5 µM): 64.13 ± 4.2 | S (MES-SA-DX5 cells; 5 µM): 12.57 ± 1.7 | Sub G1 (MES-SA-DX5 cells; 5 µM): 1.81 ± 0.3 | IC50 (MES-SA-DX5; Homo sapiens, MES-SA/Dx5, 72 h): 2.2 ± 0.3 µM | IC50 (MES-SA; Homo sapiens, MES-SA): 0.01 ± 0.002 µM | sensitivity of parental MES-SA cells compared to resistant cells (MES-SA; MES-SA vs MES-SA-DX5, MTT): more than 200 times | IC50 (MCF-7; Homo sapiens, MCF7, 72 h): 0.115 ± 0.042 µM | IC50 (K562; Homo sapiens, K562, 72 h): 0.042 ± 0.006 µM

N.N.[Cl][Pt][Cl] [Cisplatin, cisplatin, reference compound]
IC50 (A-549; 72 h): 14 ± 0.5 µM | IC50 (HEK-293; 72 h): 1.1 ± 0.5 µM | IC50 (MES-SA-DX5; 72 h): 8.6 ± 0.5 µM | IC50 (MES-SA): 1.2 ± 0.1 µM | IC50 (MCF-7; 72 h): 26.3 ± 7.9 µM | IC50 (K562; 72 h): 3.3 ± 2.3 µM

CC1=C(C(=O)Nc2csc(C)n2)C(c2cccc(Cl)c2)C2=C(CCCC2=O)N1 (stereo not drawn) [Compound A3, 4-(3-Chlorophenyl)-2-methyl-N-(2-methylthiazol-4-yl)-5-oxo-1,4,5,6,7,8-hexahydroquinoline-3-carboxamide]
IC50 (A-549; Homo sapiens, A549, 72 h): > 100 µM | melting point: 253 °C | IC50 (HEK-293; 72 h): 93.7 ± 11.9 µM | IC50 (HEK-293; Homo sapiens, HEK293, 72 h): > 50 µM | G0/G1 (MES-SA-DX5 cells; 10 µM): 50.35 ± 4.5 | G2/M (MES-SA-DX5 cells; 10 µM): 23.25 ± 1.6 | S (MES-SA-DX5 cells; 10 µM): 18.23 ± 2.6 | Sub G1 (MES-SA-DX5 cells; 10 µM): 0.51 ± 0.1 | G0/G1 (MES-SA-DX5 cells; 25 µM): 56.18 ± 1.2 | G2/M (MES-SA-DX5 cells; 25 µM): 23.08 ± 1.0 | S (MES-SA-DX5 cells; 25 µM): 19.70 ± 2.0 | Sub G1 (MES-SA-DX5 cells; 25 µM): 0.97 ± 0.2 | G0/G1 (MES-SA-DX5 cells; 100 µM): 53.64 ± 1.4 | G2/M (MES-SA-DX5 cells; 100 µM): 29.46 ± 1.8 | S (MES-SA-DX5 cells; 100 µM): 13.31 ± 1.0 | IC50 (MES-SA-DX5; Homo sapiens, MES-SA/Dx5, 72 h): 78 ± 4 µM | IC50 (MES-SA; Homo sapiens, MES-SA): > 100 µM | IC50 (MCF-7; Homo sapiens, MCF7, 72 h): > 100 µM | IC50 (K562; Homo sapiens, K562, 72 h): 56.4 ± 7 µM

COc1ccc(C2C(C(=O)Nc3csc(C)n3)=C(C)NC3=C2C(=O)CCC3)cc1OC (stereo not drawn) [Compound A8, 4-(3,4-Dimethoxyphenyl)-2-methyl-N-(2-methylthiazol-4-yl)-5-oxo-1,4,5,6,7,8-hexahydroquinoline-3-carboxamide]
IC50 (A-549; Homo sapiens, A549, 72 h): > 100 µM | melting point: 222 °C | IC50 (MES-SA-DX5; Homo sapiens, MES-SA/Dx5, 72 h): > 100 µM | IC50 (MCF-7; Homo sapiens, MCF7, 72 h): > 100 µM | IC50 (K562; Homo sapiens, K562, 72 h): > 100 µM

COc1ccc(C2C(C(=O)Nc3csc(C)n3)=C(C)NC3=C2C(=O)CCC3)cc1 (stereo not drawn) [Compound A7, 4-(4-Methoxyphenyl)-2-methyl-N-(2-methylthiazol-4-yl)-5-oxo-1,4,5,6,7,8-hexahydroquinoline-3-carboxamide]
IC50 (A-549; Homo sapiens, A549, 72 h): > 100 µM | melting point: 185 °C | IC50 (MES-SA-DX5; Homo sapiens, MES-SA/Dx5, 72 h): > 100 µM | IC50 (MCF-7; Homo sapiens, MCF7, 72 h): > 100 µM | IC50 (K562; Homo sapiens, K562, 72 h): > 100 µM

Cc1nc(NC(=O)c2c(C)nc3c(c2-c2cccc(Cl)c2)C(=O)CCC3)cs1 [Compound B3, 4-(3-Chlorophenyl)-2-methyl-N-(2-methylthiazol-4-yl)-5-oxo-5,6,7,8-tetrahydroquinoline-3-carboxamide]
IC50 (A-549; Homo sapiens, A549, 72 h): > 100 µM | melting point: 241 °C | IC50 (HEK-293; 72 h): > 100 µM | IC50 (HEK-293; Homo sapiens, HEK293, 72 h): > 50 µM | IC50 (MES-SA-DX5; Homo sapiens, MES-SA/Dx5, 72 h): 85.2 ± 7.4 µM | IC50 (MES-SA; Homo sapiens, MES-SA): > 100 µM | IC50 (MCF-7; Homo sapiens, MCF7, 72 h): > 100 µM | IC50 (K562; Homo sapiens, K562, 72 h): 50.2 ± 2.6 µM

CCOc1cc(-c2c(C(=O)Nc3csc(C)n3)c(C)nc3c2C(=O)CCC3)ccc1O [Compound B6, 4-(3-Ethoxy-4-hydroxyphenyl)-2-methyl-N-(2-methylthiazol-4-yl)-5-oxo-5,6,7,8-tetrahydroquinoline-3-carboxamide]
IC50 (A-549; Homo sapiens, A549, 72 h): > 100 µM | melting point: 267 °C | IC50 (MES-SA-DX5; Homo sapiens, MES-SA/Dx5, 72 h): > 100 µM | IC50 (MCF-7; Homo sapiens, MCF7, 72 h): > 100 µM | IC50 (K562; Homo sapiens, K562, 72 h): > 100 µM

4-(3,4-Dimethoxyphenyl)-2-methyl-N-(5-methylthiazol-2-yl)-5-oxo-5,6,7,8-tetrahydroquinoline-3-carboxamide [Compound B8]
IC50 (A-549; 72 h): > 100 µM | IC50 (MES-SA-DX5; 72 h): > 100 µM | IC50 (MCF-7; 72 h): > 100 µM | IC50 (K562; 72 h): 67.5 ± 8 µM

COc1ccc(-c2c(C(=O)Nc3csc(C)n3)c(C)nc3c2C(=O)CCC3)cc1 [Compound B7, 4-(4-Methoxyphenyl)-2-methyl-N-(2-methylthiazol-4-yl)-5-oxo-5,6,7,8-tetrahydroquinoline-3-carboxamide]
IC50 (A-549; Homo sapiens, A549, 72 h): > 100 µM | melting point: 166 °C | IC50 (MES-SA-DX5; Homo sapiens, MES-SA/Dx5, 72 h): > 100 µM | IC50 (MCF-7; Homo sapiens, MCF7, 72 h): > 100 µM | IC50 (K562; Homo sapiens, K562, 72 h): 32.9 ± 5.1 µM

CCOc1cc(C2C(C(=O)Nc3csc(C)n3)=C(C)NC3=C2C(=O)CCC3)ccc1O (stereo not drawn) [Compound A6, 4-(3-Ethoxy-4-hydroxyphenyl)-2-methyl-N-(2-methylthiazol-4-yl)-5-oxo-1,4,5,6,7,8-hexahydroquinoline-3-carboxamide]
IC50 (A-549; Homo sapiens, A549, 72 h): > 100 µM | melting point: 251 °C | IC50 (MES-SA-DX5; Homo sapiens, MES-SA/Dx5, 72 h): > 100 µM | IC50 (MCF-7; Homo sapiens, MCF7, 72 h): > 100 µM | IC50 (K562; Homo sapiens, K562, 72 h): > 100 µM

— paper PMC7221826, “5-Oxo-hexahydroquinoline Derivatives and Their Tetrahydroquinoline Counterparts as Multidrug Resistance Reversal Agents” (Molecules, 2020)
